Source: PubChem BioAssay AID652155 (Sanford-Burnham Center for Chemical Genomics, 2013)
Active and inactive are the calls of the source.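 The calls were made as follows: active = compounds with mean IC50 of 15 µM or lower in the worm heat shock reporter counterscreen; inactive = the rest.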

Tested on: C. elegans VP596 hsp-16.2 GFP/RFP heat-shock reporter
Experiment: inhibitors of heat-driven hsp-16.2 GFP expression – whole organism, C. elegans VP596, GFP/RFP ratio, counter-screen for SKN-1 inhibitor project, SAR follow-up (AID 652155)

| SMILES | IC50 |
| --- | --- |
| Fc1ccc(COc2ccc(CNC3CCCC3)cc2Cl)cc1 | > 64 µM (inactive) |
| CCOc1cc(CNC2CCCC2)cc(Cl)c1OCc1ccc(C)cc1 | > 64 µM (inactive) |
| Fc1ccc(-c2csc(-c3ccncc3)n2)cc1 | > 64 µM (inactive) |
| Fc1ccc(-c2csc(-c3cccnc3)n2)cc1 | > 64 µM (inactive) |
| Cc1ccc(-c2csc(-c3ccncc3)n2)cc1 | > 64 µM (inactive) |
| CCOc1cc(CNC2CCCC2)ccc1OCc1ccc(F)cc1 | > 64 µM (inactive) |
| Cc1ccc(-c2csc(-c3cccnc3)n2)cc1 | > 64 µM (inactive) |
| COc1cc(CNC2CCCC2)cc(Cl)c1OCc1ccc(F)cc1 | > 64 µM (inactive) |
| CCOc1cc(CNC2CCCC2)cc(Cl)c1OCc1ccc(F)cc1 | > 64 µM (inactive) |
| CCOc1cc(C(=O)NC2CCCC2)cc(Cl)c1OCc1ccc(F)cc1 | > 64 µM (inactive) |
| Clc1ccc(-c2csc(-c3ccncc3)n2)cc1 | > 64 µM (inactive) |
| CCOc1cc(CNC2CCCC2)cc(Cl)c1OCc1ccc(Cl)cc1 | > 64 µM (inactive) |
| CCOc1cc(CNC(C)C)cc(Cl)c1OCc1ccc(F)cc1 | > 64 µM (inactive) |
| CCOc1cc(CNC2CCC2)cc(Cl)c1OCc1ccc(F)cc1 | > 64 µM (inactive) |
| Clc1ccc(-c2csc(-c3cccnc3)n2)cc1 | > 64 µM (inactive) |
| COc1ccc(-c2csc(-c3ccncc3)n2)cc1 | > 64 µM (inactive) |
| c1ccc(-c2csc(-c3ccncc3)n2)cc1 | > 64 µM (inactive) |
| CCOc1cc(CNC2CC2)cc(Cl)c1OCc1ccc(F)cc1 | > 64 µM (inactive) |
| CCOc1cc(CNC2CCCC2)cc(Cl)c1OCc1ccccc1Cl | > 64 µM (inactive) |
| CCOc1cc(CNC2CCCC2)cc(Cl)c1OC | > 64 µM (inactive) |
| COc1ccc(-c2csc(-c3cccnc3)n2)cc1 | > 64 µM (inactive) |
| CCOc1cc(CNC2CCCCC2)cc(Cl)c1OCc1ccc(F)cc1 | > 64 µM (inactive) |
| CCOc1cc(CNCc2ccccc2)cc(Cl)c1OCc1ccc(F)cc1 | > 64 µM (inactive) |
| CCOc1cc(CNC2CCCC2)cc(Cl)c1OCc1ccc(OC)cc1 | > 64 µM (inactive) |
| CCOc1cc(CNc2ccccc2)cc(Cl)c1OCc1ccc(F)cc1 | > 64 µM (inactive) |
| CCOc1cc(CNC2CCCC2)cc(Cl)c1OCc1cccc(F)c1 | > 64 µM (inactive) |
| CCOc1cc(CNC2CCCC2)cc(Cl)c1OCc1ccccc1F | > 64 µM (inactive) |
| c1ccc(-c2csc(-c3cccnc3)n2)cc1 | > 64 µM (inactive) |
